In brackets after ≈: the same amount, converted by molar mass.
The compounds below were run on Bacillus cereus ATCC 10876 (assay: Broth microdilution MIC/MBC). Conditions: ATCC10876, read-out: MIC.
Format: cell-based
Source text: (§1) In vitro antimicrobial activity assays - Methodology
(§2) The examined compounds 1 - 24 were screened in vitro for antibacterial and antifungal activities using the broth microdilution method according to procedure reported earlier by our research group and European Committee on Antimicrobial Susceptibility Testing (EUCAST) and Clinical and Laboratory Standards Institute (CLSI) guidelines against a panel of reference and clinical or saprophytic strains of microorganisms, in-cluding Gram-positive bacteria, Staphylococcus aureus ATCC 43300 (Methicillin Resistant S. aureus – MRSA), Staphylococcus aureus ATCC 29213 (Methicillin Susceptible S. aureus – MSSA), Staphylococcus epidermidis ATCC 12228, Enterococcus faecalis ATCC 29212, Micro-coccus luteus ATCC 10240, Bacillus subtilis ATCC 6633 and Bacillus cereus ATCC 10876), Gram-negative bacteria (Bordetella bronchiseptica ATCC 4617, Escherichia coli ATCC 25922, Klebsiella pneumoniae ATCC 13883, Proteus mirabilis ATCC 12453, Salmonella typhimurium ATCC 14028 and Pseudomonas aeruginosa ATCC 9027) and fungi belonging to yeasts (Can-dida albicans ATCC 10231, Candida albicans ATCC 2091, Candida parapsilosis ATCC 22019, Candida glabrata ATCC 90030 and Candida krusei ATCC 14243). The microorganisms be-longing to ATCC came from American Type Culture Collection, routinely used for the evaluation of antimicrobials. All the used microbial cultures were first subcultured on nu-trient agar or Sabouraud agar at 35°C for 18-24 h or 30°C for 24-48 h for bacteria and fungi, […]
(§3) The surface of Mueller-Hinton agar (for bacteria) and RPMI 1640 with MOPS (for fungi) were inoculated with the suspensions of bacterial or fungal species. Microbial suspensions were prepared in sterile saline with an optical density of McFarland standard scale 0.5.
(§4) Samples containing examined compounds were dissolved in dimethyl sulfoxide (DMSO).
(§5) Furthermore, bacterial and fungal suspensions were put onto Petri dishes with solid me-dia containing 2 mg/mL of the tested compounds followed incubation at 37°C for 24h and 30°C for 48h for bacteria and fungi, respectively. The inhibition of microbial growth was judged by comparison with a control culture prepared without any sample tested. Ciprof-loxacin, vancomycin, nitrofurantoin, cefuroxime, ampicillin or nystatin (Sigma) were used as a reference antibacterial or antifungal compounds, respectively.
(§6) Subsequently, the MIC (Minimal Inhibitory Concentration) of the compounds was ex-amined by the microdilution broth method, using their two-fold dilutions in Mueller- […]
(§7) Hinton broth or (for bacteria) and RPMI 1640 broth with MOPS (for fungi) prepared in 96-well polystyrene plates. Final concentrations of the compounds ranged from 1000 to 0.488 µg/ml. Microbial suspensions were prepared in 0.85% NaCl with an optical density of 0.5 McFarland standard. Next each bacterial or fungal suspension was added per each well containing broth and various concentrations of the examined compounds. After incuba-

Row | MIC [µg/mL] | Structure (SMILES)
1 | 1000 (≈ 2340 µM) | COc1cc(/C=N/NC(=O)c2ccc(O)cc2O)cc(I)c1O [Compound 16, 2,4-dihydroxy-N-[(4-hydroxy-3-iodo-5-methoxyphenyl)methylidene]benzohydrazide]

Each compound was assayed on Klebsiella pneumoniae ATCC 13883 (assay: Broth microdilution MIC/MBC). Conditions: ATCC13883.
Format: cell-based
Source text: as §1, §2, §3, §4, §5, §6, §7

Row | MIC [µg/mL] | Structure (SMILES)
2 | > 1000 | COc1cc(/C=N/NC(=O)c2ccc(O)cc2O)cc(I)c1O [Compound 16, 2,4-dihydroxy-N-[(4-hydroxy-3-iodo-5-methoxyphenyl)methylidene]benzohydrazide]

These compounds were tested on Staphylococcus aureus ATCC 43300 (assay: Broth microdilution MIC/MBC). Conditions: Staphylococcus aureus ATCC 43300 (MRSA).
Format: cell-based
Source text: as §1
as §2, with “antimicrobials.” for “antimicrobials. All the used microbial cultures were first subcultured on nu-trient agar or Sabouraud agar at 35°C for 18-24 h or 30°C for 24-48 h for bacteria and fungi,”
(§8) Samples containing examined compounds were dissolved in dimethyl sulfoxide (DMSO). […]
as §6, §7

Row | MIC [µg/mL] | Structure (SMILES)
3 | > 1000 | COc1cc(/C=N/NC(=O)c2ccc(O)cc2O)cc(I)c1O [Compound 16, 2,4-dihydroxy-N-[(4-hydroxy-3-iodo-5-methoxyphenyl)methylidene]benzohydrazide]

These compounds were tested on Micrococcus luteus ATCC 10240 (assay: Broth microdilution MIC/MBC). Conditions: not given.
Format: cell-based
Source text: as §1
as §2, with “antimicrobials.” for “antimicrobials. All the used microbial cultures were first subcultured on nu-trient agar or Sabouraud agar at 35°C for 18-24 h or 30°C for 24-48 h for bacteria and fungi,”
as §8, §6, §7

Row | MBC/MIC | Structure (SMILES)
4 | > 4 | COc1cc(/C=N/NC(=O)c2ccc(O)cc2O)cc(I)c1O [Compound 16, 2,4-dihydroxy-N-[(4-hydroxy-3-iodo-5-methoxyphenyl)methylidene]benzohydrazide]

Same assay, conditions: ATCC10240

Row | Structure (SMILES) | MBC [µg/mL]
5 | COc1cc(/C=N/NC(=O)c2ccc(O)cc2O)cc(I)c1O [Compound 16, 2,4-dihydroxy-N-[(4-hydroxy-3-iodo-5-methoxyphenyl)methylidene]benzohydrazide] | > 1000

Same assay, conditions: ATCC10240, read-out: MIC

Row | MIC [µg/mL] | Structure (SMILES)
6 | 250 (≈ 584 µM) | COc1cc(/C=N/NC(=O)c2ccc(O)cc2O)cc(I)c1O [Compound 16, 2,4-dihydroxy-N-[(4-hydroxy-3-iodo-5-methoxyphenyl)methylidene]benzohydrazide]

What follows are compounds tested on Salmonella typhimurium ATCC 14028 (assay: Broth microdilution MIC/MBC). Conditions: Salmonella enterica.
Format: cell-based
Source text: as §1
as §2, with “antimicrobials.” for “antimicrobials. All the used microbial cultures were first subcultured on nu-trient agar or Sabouraud agar at 35°C for 18-24 h or 30°C for 24-48 h for bacteria and fungi,”
as §8, §6, §7

Row | MIC [µg/mL] | Structure (SMILES)
7 | > 1000 | COc1cc(/C=N/NC(=O)c2ccc(O)cc2O)cc(I)c1O [Compound 16, 2,4-dihydroxy-N-[(4-hydroxy-3-iodo-5-methoxyphenyl)methylidene]benzohydrazide]

What follows are compounds tested on Staphylococcus epidermidis ATCC 12228 (assay: Broth microdilution MIC/MBC). Conditions: not given.
Format: cell-based
Source text: as §1
as §2, with “antimicrobials.” for “antimicrobials. All the used microbial cultures were first subcultured on nu-trient agar or Sabouraud agar at 35°C for 18-24 h or 30°C for 24-48 h for bacteria and fungi,”
as §8, §6, §7

Row | MBC/MIC | Structure (SMILES)
8 | > 1 | COc1cc(/C=N/NC(=O)c2ccc(O)cc2O)cc(I)c1O [Compound 16, 2,4-dihydroxy-N-[(4-hydroxy-3-iodo-5-methoxyphenyl)methylidene]benzohydrazide]

Same assay, conditions: ATCC12228

Row | Structure (SMILES) | MBC [µg/mL]
9 | COc1cc(/C=N/NC(=O)c2ccc(O)cc2O)cc(I)c1O [Compound 16, 2,4-dihydroxy-N-[(4-hydroxy-3-iodo-5-methoxyphenyl)methylidene]benzohydrazide] | > 1000

Same assay, conditions: ATCC12228, read-out: MIC

Row | MIC [µg/mL] | Structure (SMILES)
10 | 1000 (≈ 2340 µM) | COc1cc(/C=N/NC(=O)c2ccc(O)cc2O)cc(I)c1O [Compound 16, 2,4-dihydroxy-N-[(4-hydroxy-3-iodo-5-methoxyphenyl)methylidene]benzohydrazide]

These compounds were tested on Pseudomonas aeruginosa ATCC 9027 (assay: Broth microdilution MIC/MBC). Conditions: ATCC9027.
Format: cell-based
Source text: as §1
as §2, with “antimicrobials.” for “antimicrobials. All the used microbial cultures were first subcultured on nu-trient agar or Sabouraud agar at 35°C for 18-24 h or 30°C for 24-48 h for bacteria and fungi,”
as §8, §6, §7

Row | MIC [µg/mL] | Structure (SMILES)
11 | > 1000 | COc1cc(/C=N/NC(=O)c2ccc(O)cc2O)cc(I)c1O [Compound 16, 2,4-dihydroxy-N-[(4-hydroxy-3-iodo-5-methoxyphenyl)methylidene]benzohydrazide]

What follows are compounds tested on Proteus mirabilis ATCC 12453 (assay: Broth microdilution MIC/MBC). Conditions: ATCC12453.
Format: cell-based
Source text: as §1
as §2, with “antimicrobials.” for “antimicrobials. All the used microbial cultures were first subcultured on nu-trient agar or Sabouraud agar at 35°C for 18-24 h or 30°C for 24-48 h for bacteria and fungi,”
as §8, §6, §7

Row | MIC [µg/mL] | Structure (SMILES)
12 | > 1000 | COc1cc(/C=N/NC(=O)c2ccc(O)cc2O)cc(I)c1O [Compound 16, 2,4-dihydroxy-N-[(4-hydroxy-3-iodo-5-methoxyphenyl)methylidene]benzohydrazide]

The compounds below were run on Staphylococcus aureus ATCC 29213 (assay: Broth microdilution MIC/MBC). Conditions: not given.
Format: cell-based
Source text: as §1
as §2, with “antimicrobials.” for “antimicrobials. All the used microbial cultures were first subcultured on nu-trient agar or Sabouraud agar at 35°C for 18-24 h or 30°C for 24-48 h for bacteria and fungi,”
as §8, §6, §7

Row | MBC/MIC | Structure (SMILES)
13 | > 1 | COc1cc(/C=N/NC(=O)c2ccc(O)cc2O)cc(I)c1O [Compound 16, 2,4-dihydroxy-N-[(4-hydroxy-3-iodo-5-methoxyphenyl)methylidene]benzohydrazide]

Same assay, conditions: ATCC29213

Row | MIC [µg/mL] | Structure (SMILES) | MBC [µg/mL]
14 | 1000 (≈ 2340 µM) | COc1cc(/C=N/NC(=O)c2ccc(O)cc2O)cc(I)c1O [Compound 16, 2,4-dihydroxy-N-[(4-hydroxy-3-iodo-5-methoxyphenyl)methylidene]benzohydrazide] | > 1000

These compounds were tested on Bacillus subtilis ATCC 6633 (assay: Broth microdilution MIC/MBC). Conditions: not given.
Format: cell-based
Source text: Detailed procedures are presented in the Supplementary Materials. […]
as §1, §2, §3, §4, §5, §6, §7

Row | MBC/MIC | Structure (SMILES)
15 | > 4 | COc1cc(/C=N/NC(=O)c2ccc(O)cc2O)cc(I)c1O [Compound 16, 2,4-dihydroxy-N-[(4-hydroxy-3-iodo-5-methoxyphenyl)methylidene]benzohydrazide]

Same assay, conditions: ATCC6633

Row | Structure (SMILES) | MBC [µg/mL]
16 | COc1cc(/C=N/NC(=O)c2ccc(O)cc2O)cc(I)c1O [Compound 16, 2,4-dihydroxy-N-[(4-hydroxy-3-iodo-5-methoxyphenyl)methylidene]benzohydrazide] | > 1000

Same assay, conditions: ATCC6633, read-out: MIC

Row | MIC [µg/mL] | Structure (SMILES)
17 | 250 (≈ 584 µM) | COc1cc(/C=N/NC(=O)c2ccc(O)cc2O)cc(I)c1O [Compound 16, 2,4-dihydroxy-N-[(4-hydroxy-3-iodo-5-methoxyphenyl)methylidene]benzohydrazide]
